# Laboratory results taken from patent US20240400555A1 (Initial Therapeutics, Inc., priority 2023, published 2024).
# Tested on: MV-4-11 cells
# Assay: Cell Viability Assay in MV-4-11 Cells
# Assay type: cell-based
# Details: Homo sapiens, MV4-11, 72 h, MV-4-11 cells, 72 h, Cell-Titer Glo; read-out: IC50
# Method in brief: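 Luminescent ATP read-out (CellTiter-Glo) after 72 h compound treatment of MV-4-11 leukaemia cells (7,000 per well, IMDM plus 10% FBS). Values expressed relative to DMSO control and derived by four-parameter non-linear regression.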
row,Structure (SMILES),IC50 [nM]
1,"Cc1cccc2ccnc(N(C(=O)c3ccc(Nc4ncccn4)cc3)[C@@H]3CCCNC3)c12 [Example 309, (R)—N-(8-methylisoquinolin-1-yl)-N-(piperidin-3-yl)-4-(pyrimidin-2-ylamino)benzamide]",280
2,"Cn1cc(-c2ccc(C(=O)N(c3nccc4cccc(/C=C/c5cccnc5)c34)[C@@H]3CCCNC3)cc2)nn1 [Example 349, 4-(1-methyltriazol-4-yl)-N-[(3R)-3-piperidyl]-N-[8-[(E)-2-(3-pyridyl)vinyl]-1-isoquinolyl]benzamide]",310
3,"CCc1nnc(-c2ccc(C(=O)N(c3nccc4scc(C)c34)[C@@H]3CCCNC3)c(F)c2)s1 [Example 698, (R)-4-(5-ethyl-1,3,4-thiadiazol-2-yl)-2-fluoro-N-(3-methylthieno[3,2-c]pyridin-4-yl)-N-(piperidin-3-yl)benzamide]",170
4,"COC(=O)c1cnc(Nc2ccc(C(=O)N(c3nccc4cccc(C)c34)[C@@H]3CCCNC3)c(F)c2)nc1 [Example 929, methyl (R)-2-((3-fluoro-4-((8-methylisoquinolin-1-yl)(piperidin-3-yl)carbamoyl)phenyl)amino)pyrimidine-5-carboxylate]",110
5,"Cc1cccc2ccnc(N(C(=O)c3ccc(Nc4ncccn4)nc3)[C@@H]3CCCNC3)c12 [Example 846, (R)—N-(8-methylisoquinolin-1-yl)-N-(piperidin-3-yl)-6-(pyrimidin-2-ylamino)nicotinamide]",420
6,"CC(=O)c1ccc2c(N(C(=O)c3ccc(-c4cn(C)nn4)cc3F)[C@@H]3CCCNC3)nccc2c1 [Example 610, (R)—N-(6-acetylisoquinolin-1-yl)-2-fluoro-4-(1-methyl-1H-1,2,3-triazol-4-yl)-N-(piperidin-3-yl)benzamide]",86
7,"COc1cccc(-c2cc3c(N(C(=O)c4ccc(-n5nnc6cccnc65)cc4F)[C@@H]4CCCNC4)nccc3s2)c1 [Example 385, (R)-4-(3H-[1,2,3]triazolo[4,5-b]pyridin-3-yl)-2-fluoro-N-(2-(3-methoxyphenyl)thieno[3,2-c]pyridin-4-yl)-N-(piperidin-3-yl)benzamide]",520
8,"Cc1nnc(-c2ccc(C(=O)N(c3nccc4scc(C)c34)[C@@H]3CCCNC3)c(F)c2)o1 [Example 699, (R)-2-fluoro-4-(5-methyl-1,3,4-oxadiazol-2-yl)-N-(3-methylthieno[3,2-c]pyridin-4-yl)-N-(piperidin-3-yl)benzamide]",130
9,"Cc1cc(Cl)cc2ccnc(N(C(=O)c3ccc(-c4cn(C)nn4)cc3Cl)[C@@H]3CCCNC3)c12 [Example 816, (R)-2-chloro-N-(6-chloro-8-methylisoquinolin-1-yl)-4-(1-methyl-1H-1,2,3-triazol-4-yl)-N-(piperidin-3-yl)benzamide]",140
10,"C#Cc1csc2ccnc(N(C(=O)c3ccc(-c4cn(C)nn4)cc3F)[C@@H]3CCCNC3)c12 [Example 674, (R)—N-(3-ethynylthieno[3,2-c]pyridin-4-yl)-2-fluoro-4-(1-methyl-1H-1,2,3-triazol-4-yl)-N-(piperidin-3-yl)benzamide]",100
11,"Cc1cccc2ccnc(N(C(=O)c3ccc(Nc4nccc(N5CCC(N6CCCC6)CC5)n4)cc3F)[C@@H]3CCCNC3)c12 [Example 715, (R)-2-fluoro-N-(8-methylisoquinolin-1-yl)-N-(piperidin-3-yl)-4-((4-(4-(pyrrolidin-1-yl)piperidin-1-yl)pyrimidin-2-yl)amino)benzamide]",230
12,"Cn1cc(-c2ccc(C(=O)N(c3nccc4sc(C(N)=O)cc34)[C@@H]3CCCNC3)c(F)c2)nn1 [Example 552, 4-[[2-fluoro-4-(1-methyltriazol-4-yl)benzoyl]-[(3R)-3-piperidyl]amino] thieno [3,2-c] pyridine-2-carboxamide]",910
13,"Cc1cccc2ccnc(N(C(=O)c3ccc(Nc4nccc(N5[C@H](C)COC[C@H]5C)n4)cc3F)[C@@H]3CCCNC3)c12 [Example 939, 4-((4-((3R,5R)-3,5-dimethylmorpholino)pyrimidin-2-yl)amino)-2-fluoro-N-(8-methylisoquinolin-1-yl)-N—((R)-piperidin-3-yl)benzamide]",69
14,"Cn1cc(-c2ccc(C(=O)N(c3nccc4cc(Cl)ccc34)[C@@H]3CCCNC3)c(F)c2)nn1 [Example 470, N-(6-chloro-1-isoquinolyl)-2-fluoro-4-(1-methyltriazol-4-yl)-N-[(3R)-3-piperidyl]benzamide]",91
15,"O=C(c1ccc(Nc2ncccn2)cc1F)N(c1nccc2cc(-c3cccnc3)ccc12)[C@@H]1CCCNC1 [Example 397, (R)-2-fluoro-N-(piperidin-3-yl)-N-(6-(pyridin-3-yl)isoquinolin-1-yl)-4-(pyrimidin-2-ylamino)benzamide]",460
16,"Cn1cc(-c2ccc(C(=O)N(c3nccc4cc(-c5nnn[nH]5)ccc34)[C@@H]3CCCNC3)c(F)c2)nn1 [Example 405, (R)—N-(6-(1H-tetrazol-5-yl)isoquinolin-1-yl)-2-fluoro-4-(1-methyl-1H-1,2,3-triazol-4-yl)-N-(piperidin-3-yl)benzamide]",7800
17,"CCCN(C)c1ccnc(Nc2ccc(C(=O)N(c3nccc4cccc(C)c34)[C@@H]3CCCNC3)c(F)c2)n1 [Example 745, (R)-2-fluoro-4-((4-(methyl(propyl)amino)pyrimidin-2-yl)amino)-N-(8-methylisoquinolin-1-yl)-N-(piperidin-3-yl)benzamide]",160
18,"Cc1nnc(-c2ccc(C(=O)N(c3nccc4cc(Cl)cc(C)c34)[C@@H]3CCCNC3)c(F)c2)o1 [Example 765, (R)—N-(6-chloro-8-methylisoquinolin-1-yl)-2-fluoro-4-(5-methyl-1,3,4-oxadiazol-2-yl)-N-(piperidin-3-yl)benzamide]",86
19,"CNc1nccc(-c2cc3c(N(C(=O)c4ccc(-c5cn(C)nn5)cc4F)[C@@H]4CCCNC4)nccc3s2)n1 [Example 531, (R)-2-fluoro-4-(1-methyl-1H-1,2,3-triazol-4-yl)-N-(2-(2-(methylamino)pyrimidin-4-yl)thieno[3,2-c]pyridin-4-yl)-N-(piperidin-3-yl)benzamide]",430
20,"CCc1nc(Nc2ccc(C(=O)N(c3nccc4cccc(C)c34)[C@@H]3CCCNC3)c(F)c2)ncc1F [Example 753, (R)-4-((4-ethyl-5-fluoropyrimidin-2-yl)amino)-2-fluoro-N-(8-methylisoquinolin-1-yl)-N-(piperidin-3-yl)benzamide]",170
21,"Cc1cc(-c2cccnc2)cc2ccnc(N(C(=O)c3ccc(-n4nnc5cccnc54)cc3F)[C@@H]3CCCNC3)c12 [Example 421, (R)-4-(3H-[1,2,3]triazolo[4,5-b]pyridin-3-yl)-2-fluoro-N-(8-methyl-6-(pyridin-3-yl)isoquinolin-1-yl)-N-(piperidin-3-yl)benzamide]",16

# Continued, values first:
row,IC50 [nM],Structure (SMILES)
1,220,"Cc1cccc2ccnc(N(C(=O)c3ccc(-c4cncc(C(N)=O)n4)cc3F)[C@@H]3CCCNC3)c12 [Example 318, (R)-6-(3-fluoro-4-((8-methylisoquinolin-1-yl)(piperidin-3-yl)carbamoyl)phenyl) pyrazine-2-carboxamide]"
2,290,"Cc1cccc2ccnc(N(C(=O)c3ccc(Nc4nccc(C(N)=O)n4)cc3F)[C@@H]3CCCNC3)c12 [Example 402, (R)-2-((3-fluoro-4-((8-methylisoquinolin-1-yl)(piperidin-3-yl)carbamoyl)phenyl)amino)pyrimidine-4-carboxamide]"
3,1000,"Cc1c(-c2ccc(C(=O)N(c3nccc4sc(-c5ccc(C(N)=O)cc5)cc34)[C@@H]3CCCNC3)c(F)c2)nnn1C [Example 819, N-[2-(4-carbamoylphenyl)thieno[3,2-c]yridine-4-yl]-4-(1,5-dimethyltriazol-4-yl)-2-fluoro-N-[(3R)-3-piperidyl]benzamide]"
4,> 10000,Cn1cc(-c2ccc(C(=O)N(c3nccc4sc(-c5ccc(C(=O)NCCO)cc5)cc34)[C@@H]3CCCNC3)c(F)c2)nn1 [Example 524]
5,170,"Cc1nnc(-c2ccc(C(=O)N(c3nccc4cccc(C)c34)[C@@H]3CCCNC3)cn2)s1 [Example 622, (R)-6-(5-methyl-1,3,4-thiadiazol-2-yl)-N-(8-methylisoquinolin-1-yl)-N-(piperidin-3-yl)nicotinamide]"
6,86,"COCc1nnc(-c2ccc(C(=O)N(c3nccc4scc(C)c34)[C@@H]3CCCNC3)cc2)s1 [Example 875, 4-[5-(methoxymethyl)-1,3,4-thiadiazol-2-yl]-N-(3-methylthieno[3,2-c]pyridin-4-yl)-N-[(3R)-3-piperidyl]benzamide]"
7,250,"Cc1cccc2ccnc(N(C(=O)c3ccc(N(C)c4ncccn4)cc3F)[C@@H]3CCCNC3)c12 [Example 928, (R)-2-fluoro-4-(methyl(pyrimidin-2-yl)amino)-N-(8-methylisoquinolin-1-yl)-N-(piperidin-3-yl)benzamide]"
8,970,"Cc1nnc(-c2ccc(C(=O)N(c3nccc4cc(Cl)ccc34)[C@@H]3CCCNC3)c(F)c2)o1 [Example 788, (R)—N-(6-chloroisoquinolin-1-yl)-2-fluoro-4-(5-methyl-1,3,4-oxadiazol-2-yl)-N-(piperidin-3-yl)benzamide]"
9,> 6500,"COCCn1nc(C)cc1-c1ccc(C(=O)N(c2nccc3cc(F)cc(C)c23)[C@@H]2CCCNC2)nc1 [Example 729, (R)—N-(6-fluoro-8-methylisoquinolin-1-yl)-5-(1-(2-methoxyethyl)-3-methyl-1H-pyrazol-5-yl)-N-(piperidin-3-yl)picolinamide]"
10,130,"COc1cc(C)c2c(N(C(=O)c3ccc(-c4nc(C)no4)cc3)[C@@H]3CCCNC3)nccc2c1 [Example 914, N-(6-methoxy-8-methyl-1-isoquinolyl)-4-(3-methyl-1,2,4-oxadiazol-5-yl)-N-[(3R)-3-piperidyl] benzamide]"
11,120,"Cc1nnc(-c2ccc(C(=O)N(c3nccc4c(Cl)ccc(C)c34)[C@@H]3CCCNC3)cn2)s1 [Example 898, N-(5-chloro-8-methyl-1-isoquinolyl)-6-(5-methyl-1,3,4-thiadiazol-2-yl)-N-[(3R)-3-piperidyl] pyridine-3-carboxamide]"
